The values that follow come from patent US12653187B2, “Sulfur based pesticides” (AGRONATURALIS LTD, priority 2019, dated 2026).

The structures appear in SMILES notation.

This data set is described as follows: Surface tension and equilibrium contact angle by drop shape analyser (Example 7). The data set is classed as physicochemical. The procedure: The wetting properties of the individual surfactants and in combination were evaluated by dissolving the surfactants at various concentrations in deionised water. Surface tension and equilibrium contact angle were measured in triplicate using a drop shape analyser with results given in Table 9 below.

Turning to `CCCCCCCCCCCCOS(=O)(=O)[O-].[Na+]` [sodium lauryl sulfate], the “contact angle (°)” value reads like this: (0.005 % w/w in deionised water) 107.1 °; (0.025 % w/w in deionised water) 72.8 °; (0.050 % w/w in deionised water) 63.9 °; (0.100 % w/w in deionised water) 55.3 °; (0.200 % w/w in deionised water) 51.5 °; (0.250 % w/w in deionised water) 50.6 °. The “surface tension (mN/m)” value is listed as 70.6 mN/m (0.005 % w/w in deionised water); 56.8 mN/m (0.025 % w/w in deionised water); 46.1 mN/m (0.050 % w/w in deionised water); 37.2 mN/m (0.100 % w/w in deionised water); 34.2 mN/m (0.200 % w/w in deionised water); 33.4 mN/m (0.250 % w/w in deionised water).
As for `CCCCC(CC)COC(=O)CC(C(=O)OCC(CC)CCCC)S(=O)(=O)[O-].[Na+]` (stereo not shown) [sodium dioctylsulfosuccinate], the “contact angle (°)” value reads like this: (0.005 % w/w in deionised water) 54.1 °; (0.010 % w/w in deionised water) 38.2 °; (0.025 % w/w in deionised water) 35.4 °; (0.050 % w/w in deionised water) 31.5 °; (0.100 % w/w in deionised water) 28.7 °; (0.200 % w/w in deionised water) 24.4 °. The “contact angle (°)” value came out at 22.8 ° (0.250 % w/w in deionised water) and 21.4 ° (0.500 % w/w in deionised water). The “surface tension (mN/m)” value (0.005 % w/w in deionised water) is given as 44.3 mN/m; the “surface tension (mN/m)” value (0.010 % w/w in deionised water) amounted to 43.6 mN/m; the “surface tension (mN/m)” value (0.025 % w/w in deionised water) was 34.7 mN/m; the “surface tension (mN/m)” value (0.050 % w/w in deionised water) was determined as 32.2 mN/m; the “surface tension (mN/m)” value (0.100 % w/w in deionised water) was determined as 28.3 mN/m; the “surface tension (mN/m)” value (0.200 % w/w in deionised water) is recorded as 26.8 mN/m. Further, the “surface tension (mN/m)” value by setting is: (0.250 % w/w in deionised water) 26.1 mN/m; (0.500 % w/w in deionised water) 25.3 mN/m.
